Measured values from patent US5145990A, “Phosphorous containing dhp enzyme inhibitors” (Merck & Co., Inc., priority 1991, dated 1992).

Target: T1, renal dehydropeptidase I (renal dipeptidase, E.C. 3.4.13.11) (Sus scrofa, UniProt P22412)
T1 construct: solubilized preparation of […] isolated from hog kidneys; from tissue; host or cells: hog kidney
T1 sequence (P22412 17-409): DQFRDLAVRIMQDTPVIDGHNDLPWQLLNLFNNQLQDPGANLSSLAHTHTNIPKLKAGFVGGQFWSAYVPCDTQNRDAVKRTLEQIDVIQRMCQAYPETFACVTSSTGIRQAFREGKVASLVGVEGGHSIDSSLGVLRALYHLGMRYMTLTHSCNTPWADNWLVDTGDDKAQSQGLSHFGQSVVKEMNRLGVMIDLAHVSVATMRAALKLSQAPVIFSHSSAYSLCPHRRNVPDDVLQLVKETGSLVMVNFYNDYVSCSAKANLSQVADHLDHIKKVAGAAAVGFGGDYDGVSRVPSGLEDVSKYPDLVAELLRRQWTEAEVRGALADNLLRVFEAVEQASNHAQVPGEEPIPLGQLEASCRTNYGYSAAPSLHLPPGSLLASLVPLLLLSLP
Assay: In vitro screen: inhibition of hydrolysis of glycyldehydrophenylalanine (GDP) by solubilized renal dipeptidase
Assay type: biochemical
Settings: Table I, structure II; hog kidney enzyme, GDP 0.05 mM, pH 7.1, 37° C., 275 nm
Procedure: Renal dehydropeptidase activity was first described by M. Bergmann and H. Schleich, Z. Physiol. Chem., 205, 65 (1932); see also B. J. Campbell et al., Biochem. Biophys. Acta, 118, 371 (1966) and references therein.
This measured the ability of compounds to inhibit hydrolysis of glycyldehydrophenylalanine (GDP) by a solubilized preparation of […] isolated from hog kidneys. The procedure is as follows: to a 1 ml system containing 50 mM "MOPS" (3-(N-morpholino)-propanesulfonic acid) buffer, pH 7.1 is added 5 mg of lyophilized enzyme, and the test compound at a final concentration of 0.1 mM. After a five minute incubation of 37° C., GDP is added to a final concentration of 0.05 mM. Incubation is continued for 10 minutes, at 37° C. and hydrolysis of GDP is measured by the change in optical density with time at 275 nm. Inhibition of the enzyme is gauged by comparison to a standard run containing no inhibitor and is expressed as the inhibitor binding constant K. This is the concentration of the inhibitor which achieves 50% inhibition of enzyme.

CC(C)/C=C(\CP(=O)(O)C(N)CC1CCCCC1)C(=O)O (centres unmarked)
Ki: 2.1 nM

CC(C)/C=C(/CP(=O)(O)C(N)CC1CCCCC1)C(=O)O (centres unmarked)
Ki: 21 nM
